# Results taken from US20060069132A1, “Azolecarboxamide herbicides” (priority 2004, published 2006).
# Columns and labels:
# soybean = assay: Test C pre-/postemergence herbicide test; assay type: in vivo, Glycine max
# Summary of the method: (§1)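 Visual injury scores run from 0 (no effect) to 100 (complete control), assessed relative to untreated controls 12 to 14 days after treatment in the greenhouse. Chemicals were formulated in a non-phytotoxic solvent mixture with surfactant and applied to soil after planting or to emerged plants at the 1- to 4-leaf stage.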
# morningglory = assay: Test A pre-/postemergence herbicide test; assay type: in vivo, Ipomoea spp.
# Summary of the method: (§2)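 Pre: seeded sandy loam, directed soil spray, compound in non-phytotoxic solvent + surfactant. Post: 1–2-leaf plants (2–10 cm), sprayed to runoff. Greenhouse ~10 d; visual injury vs untreated, 0–100 scale.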
# cocklebur = assay: Test C pre-/postemergence herbicide test; assay type: in vivo, Xanthium strumarium; conditions: for Cocklebur plant response rating: 500 g ai/ha
# Summary of the method: as §1
# velvetleaf [1] = assay: Test A pre-/postemergence herbicide test; assay type: in vivo, Abutilon theophrasti
# Summary of the method: as §2
# yellow nutsedge = assay: Test C pre-/postemergence herbicide test; assay type: in vivo, Cyperus esculentus
# Summary of the method: as §1
# goosegrass = assay: Test C pre-/postemergence herbicide test; assay type: in vivo, Eleusine indica
# Summary of the method: as §1
# lambsquarters = assay: Test C pre-/postemergence herbicide test; assay type: in vivo, Chenopodium album
# Summary of the method: as §1
# velvetleaf [2] = assay: Test C pre-/postemergence herbicide test; assay type: in vivo, Abutilon theophrasti
# Summary of the method: as §1
# [3] = system: common (oilseed) sunflower; assay: Test C pre-/postemergence herbicide test; assay type: in vivo, Helianthus annuus; conditions: for Plant response rating, Sunflower: preemergence; for Sunflower plant response rating: Preemergence, scale 0 to 100, 0 no effect, 100 complete control
# Summary of the method: as §1
# [4] = 62 g ai/ha, preemergence, scale 0 to 100
# [5] = 125 g ai/ha, scale 0 (no effect) to 100 (complete control), visual, 12 to 14 days, preemergence
# [6] = 250 g ai/ha, scale 0-100, preemergence
# [7] = Preemergence, 500 g ai/ha, scale 0 to 100, 0 no effect, 100 complete control
# [8] = Postemergence, 500 g ai/ha, 0 to 100 scale, 0 no effect, 100 complete control
# [9] = Postemergence, 2000 g ai/ha, 0 to 100 scale, 0 no effect, 100 complete control
# [10] = Preemergence, 2000 g ai/ha, visual rating, 0 to 100 scale (0 no effect, 100 complete control)
# [11] = preemergence, 500 g ai/ha, visual injury, 0 to 100 scale (0 no effect, 100 complete control)
# [12] = Preemergence, scale 0 to 100, 0 no effect, 100 complete control
# [13] = 125 g ai/ha, scale 0 (no effect) to 100 (complete control), visual, 12 to 14 days
# [14] = 500 g ai/ha, scale 0 to 100 (0 no effect, 100 complete control), visual, 12 to 14 days, preemergence
# [15] = Postemergence, 500 g ai/ha, scale 0 to 100
# [16] = Postemergence, 250 g ai/ha, scale 0 to 100, 0 no effect, 100 complete control
# [17] = postemergence, 125 g ai/ha, scale 0 to 100
# [18] = postemergence, 62 g ai/ha, scale 0 to 100
# [19] = 500 g ai/ha, scale 0 to 100 (0 no effect, 100 complete control), visual, 12 to 14 days
compound,measurement,setting,value
CCN(CC)C(=O)c1cccc(NC(=O)c2sc(C(C)(C)C)nc2C)c1 [Compound 199],"Plant response rating, Soybean",soybean; [4],0
same,"Plant response rating, Soybean",soybean; [5],0
same,"Plant response rating, Soybean",soybean; [6],5
same,Soybean plant response rating,soybean; [7],30
same,Morningglory plant response rating,morningglory; [8],45
same,"Plant response rating, Morningglory",morningglory; [9],70
same,Morningglory plant response rating,morningglory; [10],55
same,Morningglory plant response rating,morningglory; [11],15
same,"Plant response rating, Cocklebur",cocklebur; [4],0
same,"Plant response rating, Cocklebur",cocklebur; [5],0
same,"Plant response rating, Cocklebur",cocklebur; [6],0
same,Cocklebur plant response rating,cocklebur; [12],0
same,Velvetleaf plant response rating,velvetleaf [1]; [8],30
same,"Plant response rating, Velvetleaf",velvetleaf [1]; [9],35
same,Velvetleaf plant response rating,velvetleaf [1]; [10],90
same,Velvetleaf plant response rating,velvetleaf [1]; [11],35
same,"Plant response rating, Nutsedge, Yellow",yellow nutsedge; [4],0
same,"Plant response rating, Nutsedge, Yellow",yellow nutsedge; [5],0
same,"Plant response rating, Nutsedge, Yellow",yellow nutsedge; [6],0
same,"Nutsedge, Yellow plant response rating",yellow nutsedge; [7],0
same,"Plant response rating, Goosegrass",goosegrass; [4],5
same,"Plant response rating, Goosegrass",goosegrass; [5],70
same,"Plant response rating, Goosegrass",goosegrass; [6],90
same,Goosegrass plant response rating,goosegrass; [7],95
same,"Plant response rating, Lambsquarters",lambsquarters; [4],80
same,"Plant response rating, Lambsquarters",lambsquarters; [5],95
same,"Plant response rating, Lambsquarters",lambsquarters; [6],100
same,Lambsquarters plant response rating,lambsquarters; [7],100
same,"Plant response rating, Velvetleaf",velvetleaf [2]; [4],10
same,"Plant response rating, Velvetleaf",velvetleaf [2]; [5],70
same,"Plant response rating, Velvetleaf",velvetleaf [2]; [6],85
same,Velvetleaf plant response rating,velvetleaf [2]; [7],85
same,"Plant response rating, Sunflower","[3]; 62 g ai/ha, scale 0 to 100",0
same,"Plant response rating, Sunflower",[3]; [13],0
same,"Plant response rating, Sunflower","[3]; 250 g ai/ha, scale 0-100",0
same,Sunflower plant response rating,[3]; 500 g ai/ha,0
CCc1nc(C(C)(C)C)sc1C(=O)Nc1cccc(C(=O)N(CC)CC)c1 [Compound 205],"Plant response rating, Soybean",soybean; [5],20
same,"Plant response rating, Soybean",soybean; [6],20
same,Soybean plant response rating,soybean; [7],60
same,Morningglory plant response rating,morningglory; [8],25
same,"Plant response rating, Morningglory",morningglory; [9],20
same,Morningglory plant response rating,morningglory; [10],45
same,Morningglory plant response rating,morningglory; [11],30
same,"Plant response rating, Cocklebur",cocklebur; [4],0
same,"Plant response rating, Cocklebur",cocklebur; [5],0
same,"Plant response rating, Cocklebur",cocklebur; [6],0
same,Cocklebur plant response rating,cocklebur; [12],0
same,Velvetleaf plant response rating,velvetleaf [1]; [8],20
same,"Plant response rating, Velvetleaf",velvetleaf [1]; [9],30
same,Velvetleaf plant response rating,velvetleaf [1]; [10],100
same,Velvetleaf plant response rating,velvetleaf [1]; [11],70
same,"Plant response rating, Nutsedge, Yellow",yellow nutsedge; [4],0
same,"Plant response rating, Nutsedge, Yellow",yellow nutsedge; [5],0
same,"Plant response rating, Nutsedge, Yellow",yellow nutsedge; [6],0
same,"Nutsedge, Yellow plant response rating",yellow nutsedge; [7],10
same,"Plant response rating, Goosegrass",goosegrass; [4],50
same,"Plant response rating, Goosegrass",goosegrass; [5],70
same,"Plant response rating, Goosegrass",goosegrass; [6],80
same,Goosegrass plant response rating,goosegrass; [7],95
same,"Plant response rating, Lambsquarters",lambsquarters; [4],85
same,"Plant response rating, Lambsquarters",lambsquarters; [5],90
same,"Plant response rating, Lambsquarters",lambsquarters; [6],90
same,Lambsquarters plant response rating,lambsquarters; [7],100
same,"Plant response rating, Velvetleaf",velvetleaf [2]; [4],10
same,"Plant response rating, Velvetleaf",velvetleaf [2]; [5],40
same,"Plant response rating, Velvetleaf",velvetleaf [2]; [6],60
same,Velvetleaf plant response rating,velvetleaf [2]; [7],100
same,"Plant response rating, Sunflower","[3]; 62 g ai/ha, scale 0 to 100",0
same,"Plant response rating, Sunflower",[3]; [13],0
same,"Plant response rating, Sunflower","[3]; 250 g ai/ha, scale 0-100",0
same,Sunflower plant response rating,[3]; 500 g ai/ha,0
CCc1nc(C(C)(C)C)sc1C(=O)Nc1cccc(C(=O)NCC2CC2)c1 [Compound 212],"Plant response rating, Soybean",soybean; [4],0
same,"Plant response rating, Soybean",soybean; [5],0
same,"Plant response rating, Soybean",soybean; [6],0
same,"Plant response rating, Soybean",soybean; [14],60
same,Soybean plant response rating,soybean; [15],85
same,"Plant response rating, Soybean",soybean; [16],70
same,"Plant response rating, Soybean",soybean; [17],60
same,"Plant response rating, Soybean",soybean; [18],50
same,Morningglory plant response rating,morningglory; [8],15
same,"Plant response rating, Morningglory",morningglory; [9],20
same,Morningglory plant response rating,morningglory; [10],65
same,Morningglory plant response rating,morningglory; [11],30
same,"Plant response rating, Cocklebur",cocklebur; [4],0
same,"Plant response rating, Cocklebur",cocklebur; [5],0
same,"Plant response rating, Cocklebur",cocklebur; [6],5
same,Cocklebur plant response rating,"cocklebur; Postemergence, scale 0 to 100",70
same,"Plant response rating, Cocklebur",cocklebur; [16],70
same,Cocklebur plant response rating,cocklebur; [12],95
same,"Plant response rating, Cocklebur",cocklebur; [17],60
same,"Plant response rating, Cocklebur",cocklebur; [18],10
same,Velvetleaf plant response rating,velvetleaf [1]; [8],35
same,"Plant response rating, Velvetleaf",velvetleaf [1]; [9],35
same,Velvetleaf plant response rating,velvetleaf [1]; [10],100
same,Velvetleaf plant response rating,velvetleaf [1]; [11],65
same,"Plant response rating, Nutsedge, Yellow",yellow nutsedge; [4],0
same,"Plant response rating, Nutsedge, Yellow",yellow nutsedge; [5],0
same,"Plant response rating, Nutsedge, Yellow",yellow nutsedge; [6],0
same,"Plant response rating, Nutsedge, Yellow",yellow nutsedge; [14],0
same,"Nutsedge, Yellow plant response rating",yellow nutsedge; [15],20
same,"Plant response rating, Nutsedge, Yellow",yellow nutsedge; [16],20
same,"Plant response rating, Nutsedge, Yellow",yellow nutsedge; [17],10
same,"Plant response rating, Nutsedge, Yellow",yellow nutsedge; [18],0
same,"Plant response rating, Goosegrass",goosegrass; [4],10
same,"Plant response rating, Goosegrass",goosegrass; [5],60
same,"Plant response rating, Goosegrass",goosegrass; [6],95
same,"Plant response rating, Goosegrass",goosegrass; [14],100
same,Goosegrass plant response rating,goosegrass; [15],30
same,"Plant response rating, Goosegrass",goosegrass; [16],25
same,"Plant response rating, Goosegrass",goosegrass; [17],10
same,"Plant response rating, Goosegrass",goosegrass; [18],10
same,"Plant response rating, Lambsquarters",lambsquarters; [4],100
same,"Plant response rating, Lambsquarters",lambsquarters; [5],100
same,"Plant response rating, Lambsquarters",lambsquarters; [6],100
same,"Plant response rating, Lambsquarters",lambsquarters; [14],100
same,Lambsquarters plant response rating,lambsquarters; [15],100
same,"Plant response rating, Lambsquarters",lambsquarters; [16],90
same,"Plant response rating, Lambsquarters",lambsquarters; [17],90
same,"Plant response rating, Lambsquarters",lambsquarters; [18],80
same,"Plant response rating, Velvetleaf",velvetleaf [2]; [4],20
same,"Plant response rating, Velvetleaf",velvetleaf [2]; [5],100
same,"Plant response rating, Velvetleaf",velvetleaf [2]; [6],100
same,"Plant response rating, Velvetleaf",velvetleaf [2]; [14],100
same,Velvetleaf plant response rating,velvetleaf [2]; [15],70
same,"Plant response rating, Velvetleaf",velvetleaf [2]; [16],50
same,"Plant response rating, Velvetleaf",velvetleaf [2]; [18],0
same,"Plant response rating, Sunflower","[3]; 62 g ai/ha, scale 0 to 100",0
same,"Plant response rating, Sunflower",[3]; [13],0
same,"Plant response rating, Sunflower","[3]; 250 g ai/ha, scale 0-100",0
same,"Plant response rating, Sunflower",[3]; [19],0
CCN(CC)C(=O)c1cccc(NC(=O)c2cc(C(C)(C)C)nn2C)n1 [Compound 314],"Plant response rating, Soybean",soybean; [4],0
same,"Plant response rating, Soybean",soybean; [6],40
same,"Plant response rating, Soybean",soybean; [14],40
same,Morningglory plant response rating,morningglory; [8],30
same,"Plant response rating, Morningglory",morningglory; [9],50
same,Morningglory plant response rating,morningglory; [10],30
same,Morningglory plant response rating,morningglory; [11],10
same,"Plant response rating, Cocklebur",cocklebur; [4],0
same,"Plant response rating, Cocklebur",cocklebur; [5],0
same,"Plant response rating, Cocklebur",cocklebur; [6],0
same,Cocklebur plant response rating,cocklebur; [12],20
same,Velvetleaf plant response rating,velvetleaf [1]; [8],20
same,"Plant response rating, Velvetleaf",velvetleaf [1]; [9],30
same,Velvetleaf plant response rating,velvetleaf [1]; [10],80
same,Velvetleaf plant response rating,velvetleaf [1]; [11],40
same,"Plant response rating, Nutsedge, Yellow",yellow nutsedge; [4],0
same,"Plant response rating, Nutsedge, Yellow",yellow nutsedge; [5],0
same,"Plant response rating, Nutsedge, Yellow",yellow nutsedge; [6],0
same,"Plant response rating, Nutsedge, Yellow",yellow nutsedge; [14],0
same,"Plant response rating, Goosegrass",goosegrass; [4],0
same,"Plant response rating, Goosegrass",goosegrass; [5],40
same,"Plant response rating, Goosegrass",goosegrass; [6],65
same,"Plant response rating, Goosegrass",goosegrass; [14],85
same,"Plant response rating, Lambsquarters",lambsquarters; [4],0
same,"Plant response rating, Lambsquarters",lambsquarters; [5],10
same,"Plant response rating, Lambsquarters",lambsquarters; [6],30
same,"Plant response rating, Lambsquarters",lambsquarters; [14],85
same,"Plant response rating, Velvetleaf",velvetleaf [2]; [4],0
same,"Plant response rating, Velvetleaf",velvetleaf [2]; [6],80
same,"Plant response rating, Velvetleaf",velvetleaf [2]; [14],85
same,"Plant response rating, Sunflower","[3]; 62 g ai/ha, scale 0 to 100",0
same,"Plant response rating, Sunflower","[3]; 250 g ai/ha, scale 0-100",20
same,"Plant response rating, Sunflower",[3]; [19],45
